Source: patent publication US8257928B2, “Methods for predicting and treating tumors resistant to drug, immunotherapy and radiation” (The Regents of the University of California, priority 2008, dated 2012)

Assays:
Type in all cases: cell-based, human
N-CoR2 = experiment: Immunoblot of N-CoR2 protein abundance in 2D, 3D and reverted cultures; conditions: T4-2 aggregates reverted into organized spheroids by EGFR inhibition, vs disorganized 3D aggregates
Method: For immunoblot analysis, cell colonies (S1 acini or T4-2 cellular aggregates) in 3D rBM were isolated using ice-cold PBS/EDTA. Total cell lysates from monolayered cells or isolated colonies were prepared in Laemmli lysing buffer containing protease inhibitors and immunoblot analysis was performed as described (Exp. Cell Res. 298:122-132 (2004)).

HMT3522 T4-2 cells [1] = experiment: Phenotypic reversion in three dimensional rBM cultures; conditions: tyrphostin AG 1478 100 nM
Description: (§1) Non-neoplastic HMT3522 S1 breast epithelial cells or neoplastic HMT3522 T4-2 cells were embedded (8.5×10^5/ml) within reconstituted basement membrane (rBM) gel (Matrigcl, BD Biosciences) in chamber slides (Lab-Tek chamber slides, Nunc) according to the procedures described in U.S. Pat. No. 6,123,941 and Nat. Method. 4:359-365 (2007). The three dimensional cultures were maintained for 12 days before induction of cell death. Phenotypic reversion of HMT3522 T4-2 cells in three dimensional rBM cultures was performed using an epidermal growth factor receptor (EGFR) specific tyrosine kinase inhibitor tyrphostin AG 1478 (100 nM) (Calbiochem), as previously described (Proc. Natl. Acad. Sci. USA 95:14821-14826 (1998))

HMT3522 S1 cells [2] = experiment: Cell growth rates on culture plastics and 3D acinar morphogenesis in rBM; conditions: stable RNAi vs control shRNA
Method: For the comparison of cell growth rates, cells were seeded on culture plastics and the cell number was determined at indicated time points. Population doublings were calculated as In (cell number at day n/cell number at day 0)/ln 2. Data were shown as mean±SEM of triplicate experiments.
To illustrate the basal surfaces and the intercellular junctions of the polarized acinar structures, the cultures were directly fixed with 2% paraformaldehyde and then incubated with primary antibodies toward β4-integrin and β-catenin, followed by FITC-(green) or Texas red-(red) conjugated secondary antibodies, respectively. Phase contrast images or immunofluorescence images were taken using a scanning confocal laser (model 2000-MP, Bio-Rad Laboratories) attached to a fluorescence microscope (model Eclipse TE-300, Nikon).

HMT3522 S1 cells [3] = experiment: Percent cell death of 3D rBM acini (active caspase 3; Live/Dead assay for IR); conditions: stable N-CoR2 downregulation vs control cells, range of drug concentrations or IR doses
Description: The oligonucleotides specifying the small hairpin RNAs (shRNAs) were subcloned from pSilencer-H1 into pLZRS-MFG-CMV-Neo-U6, a recombinant self-inactivating retroviral vector constructed from the backbone of an MFG provirus (Proc. Natl. Acad. Sci. USA 85:6460-6464 (1988); Proc. Natl. Acad. Sci. USA 90:3539-3543 (1993)), which directs the expression of shRNA under the control of the U6 promoter. Amphotropic retrovirus was produced in Phoenix ampho cells (provided by Professor G. Nolan, Stanford Medical Center) with packaging vectors pCgp and pVSVG to boost viral titer. S1 cells or T4-2 cells, maintained in monolayer cultures, were then spin infected with retrovirus carrying the various RNAi constructs and infected cell populations were selected using 300 μg/ml G418 (Invitrogen). […]
Percent cell death induced by TRAIL or Paclitaxel was quantified using detection of active caspase 3 (Cell Signaling) by indirect immunofluorescence as described (J. Cell Biol. 163:1397-1407 (2003)). Percent cell death induced by IR was quantified using Live/Dead Viability/Cytotoxicity Assay (Molecular Probes). […] Percent death was calculated as cells positive for ethidium bromide or active caspase 3 expressed as a percentage of the total number of cells scored by the nuclear staining.

HMT3522 T4-2 cells [4] = experiment: Percent cell death in 2D monolayer, 3D rBM and reverted cultures (active caspase 3); conditions: stable N-CoR2 downregulation; TRAIL 1.0 μg/mL or Paclitaxel 20 μM
Description: The oligonucleotides specifying the small hairpin RNAs (shRNAs) were subcloned from pSilencer-H1 into pLZRS-MFG-CMV-Neo-U6, a recombinant self-inactivating retroviral vector constructed from the backbone of an MFG provirus (Proc. Natl. Acad. Sci. USA 85:6460-6464 (1988); Proc. Natl. Acad. Sci. USA 90:3539-3543 (1993)), which directs the expression of shRNA under the control of the U6 promoter. Amphotropic retrovirus was produced in Phoenix ampho cells (provided by Professor G. Nolan, Stanford Medical Center) with packaging vectors pCgp and pVSVG to boost viral titer. S1 cells or T4-2 cells, maintained in monolayer cultures, were then spin infected with retrovirus carrying the various RNAi constructs and infected cell populations were selected using 300 μg/ml G418 (Invitrogen).
as §1, with “The three dimensional cultures were maintained for 12 days before induction of cell death.” left out
Apoptotic cell death of the breast epithelial cells cultured in three dimensional rBM was initiated by treatment with recombinant, purified human tumor necrosis factor-related apoptosis-inducing ligand (TRAIL) peptides (BIOMOL) or Paclitaxel (Sigma-Aldrich) as described (Cancer Cell 2:205-216 (2002)). DNA damage-induced cell death was initiated by ionizing radiation (IR) using a Mark I Cesium 137 irradiator (JL Shepherd & Associates).
Percent cell death induced by TRAIL or Paclitaxel was quantified using detection of active caspase 3 (Cell Signaling) by indirect immunofluorescence as described (J. Cell Biol. 163:1397-1407 (2003)). Percent cell death induced by IR was quantified using Live/Dead Viability/Cytotoxicity Assay (Molecular Probes). For both methods, cells were counterstained with 4′,6-diamidino-2-phenylindole (DAPI) to label cell nuclei present at different focal planes in the 3D architectures. Percent death was calculated as cells positive for ethidium bromide or active caspase 3 expressed as a percentage of the total number of cells scored by the nuclear staining.
Percent cell death induced by TRAIL was quantified using detection of active caspasc 3 as described in Example 4.

| Molecule | protein abundance of N-CoR2 (N-CoR2) | phenotypic reversion of cellular aggregates in 3D rBM (HMT3522 T4-2 cells [1]) | growth on culture plastics, integrity and polarization of acini in 3D rBM (HMT3522 S1 cells [2]) | sensitivity of S1 acini to death stimuli (TRAIL, Paclitaxel, IR) (HMT3522 S1 cells [3]) | increased resistance of reverted spheroidal structures to death stimuli (TRAIL, Paclitaxel) (HMT3522 T4-2 cells [4]) |
| --- | --- | --- | --- | --- | --- |
| COc1cc2ncnc(Nc3cccc(Cl)c3)c2cc1OC [tyrphostin AG 1478] | further increase in the protein abundance of N-CoR2 | phenotypic reversion of the cellular aggregates into organized spheroid-like structures |  |  |  |
| N-CoR2 shRNA: retrovirally expressed small hairpin RNA, siRNA sequence 5′-AAGGGTATCATCACCGCTGTG-3′ (SEQ ID NO:1) for N-CoR2 |  |  | does not significantly alter | much more sensitive | completely reversed |
